The NIST ThermoML archive (doi:10.1016/j.jct.2015.12.017)

Assay: molar heat capacity at constant pressure
Conditions: 101.33 kPa, Crystal 4, Vacuum adiabatic calorimetry

O=P([O-])([O-])[O-].[Co+2].[Cs+] [cesium cobalt(II) phosphate]
Conditions	molar heat capacity at constant pressure [J/K/mol]
5 K	1.355
6 K	2.328
6.05 K	2.228
6.49 K	2.594
6.93 K	2.96
7 K	2.893
7.36 K	3.11
7.78 K	3.317
8 K	3.492
8.19 K	3.633
8.62 K	4.041
9 K	4.091
9.08 K	4.232
9.58 K	4.457
10 K	4.689
10.1 K	4.822
10.63 K	5.13
11.16 K	5.471
11.67 K	5.737
12.16 K	5.97
13 K	6.635
14.27 K	7.807
15 K	8.29
15.59 K	8.921
16.94 K	10.37
18.33 K	11.79
19.77 K	13.05
20 K	13.44
20.92 K	14.28
22.76 K	16.17
24.48 K	17.93
25 K	18.57
26.27 K	19.85
28.12 K	21.62
30 K	23.49
30.03 K	23.55
32 K	25.54
34.02 K	27.66
35 K	28.29
36.12 K	29.27
37.97 K	30.99
40 K	33.01
40.47 K	33.46
42.73 K	35.36
45 K	37.42
45.02 K	37.41
47.34 K	39.6
49.71 K	41.16
50 K	41.41
52.12 K	42.9
54.56 K	44.8
57.05 K	46.5
59.55 K	48
60 K	48.39
62.07 K	49.7
64.59 K	51.3
67.13 K	53
69.7 K	54.4
70 K	54.75
72.02 K	56.1
74.09 K	57.4
76.18 K	58.59
78.27 K	59.6
80 K	60.56
80.36 K	60.71
80.84 K	60.8
82.45 K	61.91
82.83 K	62.06
84.54 K	62.83
85.25 K	63.18
86.65 K	64.17
87.47 K	64.52
89.36 K	65.58
89.69 K	65.7
90 K	65.75
91.92 K	66.67
94.14 K	67.78
96.37 K	69.09
98.6 K	70.17
100 K	70.96
100.83 K	71.3
103.07 K	72.37
105.3 K	73.45
107.54 K	74.66
109.78 K	75.44
110 K	75.59
111.8 K	76.31
114.54 K	77.64
116.74 K	78.51
118.98 K	79.46
120 K	79.79
121.23 K	80.28
123.47 K	81.37
125.71 K	82.23
127.95 K	83.09
130 K	83.89
130.19 K	83.89
132.43 K	84.89
134.67 K	85.72
136.91 K	86.55
139.14 K	87.39
140 K	87.97
141.38 K	88.3
143.49 K	89.3
145.85 K	90.21
148.08 K	91.21
150 K	91.96
150.3 K	91.79
151.78 K	92.54
152.91 K	93.04
153.96 K	93.62
155.41 K	94.12
157.59 K	94.87
159.03 K	95.37
160 K	95.78
161.93 K	96.28
163.35 K	96.95
164.07 K	97.28
165.61 K	97.86
166.94 K	98.53
167.88 K	98.78
170 K	99.36
170.03 K	99.61
172.23 K	100.19
174.44 K	100.85
176.64 K	101.6
178.83 K	102.35
180 K	102.68
181.02 K	103.1
183.21 K	103.93
185.4 K	104.51
187.59 K	105.09
189.78 K	105.59
190 K	105.76
191.97 K	106.18
194.89 K	106.84
196.33 K	107.26
198.51 K	107.92
200 K	108.59
200.68 K	108.67
202.82 K	109.34
204.99 K	109.92
207.16 K	110.5
209.32 K	111.16
210 K	111.25
211.49 K	111.66
213.66 K	112.25
215.82 K	112.83
217.98 K	113.49
220 K	113.83
220.14 K	114.07
222.3 K	114.66
224.46 K	115.07
226.62 K	115.82
228.77 K	116.15
230 K	116.49
230.93 K	116.65
233.08 K	117.32
235.23 K	117.73
237.35 K	118.4
239.5 K	118.98
240 K	119.23
241.65 K	119.56
243.79 K	120.23
245.94 K	120.81
248.09 K	121.39
250 K	121.97
250.23 K	121.97
252.37 K	122.72
254.5 K	123.3
256.64 K	123.8
258.77 K	124.3
260 K	124.72
260.91 K	124.88
263.04 K	125.38
265.17 K	126.05
267.3 K	126.71
269.42 K	127.29
270 K	127.29
271.51 K	127.71
273.15 K	128.04
273.63 K	128.13
276.36 K	128.79
278.4 K	129.21
280 K	129.62
280.51 K	129.79
282.62 K	130.29
284.72 K	130.62
286.82 K	131.12
288.92 K	131.62
290 K	131.78
291.02 K	132.2
293.09 K	132.62
295.18 K	133.03
297.25 K	133.53
298.15 K	133.7
299.32 K	134.03
300 K	134.11
301 K	134.69
301.38 K	134.69
302.98 K	135.36
303.43 K	135.36
